{"source": "patent US20070167492A1", "about": "“Molluscicidal agents” (priority 2003, published 2007)", "key": {"[1]": {"test_system": "Deroceras reticulatum (grey field slug)", "assay": "Example 1: pot test, treated winter wheat seed with 5 adult slugs per pot, 14 days", "type": "in vivo", "outline": "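Fludioxonil-disinfected winter wheat seed (Kampa, 40 per pot) sown on quartz sand over potting soil with 5 adult slugs per pot; ±15° C., ±90% RH, 12 h light/12 h dark, 4 replicates. Damaged seeds, plants, dead slugs and fecal pellets counted up to day 14; F-tests and Student-tests.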"}, "[2]": {"test_system": "Winter wheat (Kampa race) seeds", "assay": "Seed germination test of treated winter wheat seeds (rolled in paper)", "type": "in vivo", "details": "3x50 seeds, 6 days at 22° C.", "outline": "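Seeds were disinfected with fludioxonil-containing Beret Gold (2 ml per kg seed) and coated with Sepiret® for formulations unsuitable for coating. Germination of 3×50 seeds rolled in paper was scored after 6 days at continuous 22° C. under a 16 hours light regime.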"}, "[3]": {"details": "3.8 ml formulated per kg seed, 2 days after sowing"}, "[4]": {"details": "3.8 ml formulated per kg seed, 3 days after sowing"}, "[5]": {"details": "3.8 ml formulated per kg seed, 7 days after sowing"}, "[6]": {"details": "3.8 ml formulated per kg seed, 10 days after sowing"}, "[7]": {"details": "3.8 ml formulated per kg seed, 14 days after sowing"}, "[8]": {"details": "7.5 ml formulated per kg seed, 2 days after sowing"}, "[9]": {"details": "7.5 ml formulated per kg seed, 3 days after sowing"}, "[10]": {"details": "7.5 ml formulated per kg seed, 7 days after sowing"}, "[11]": {"details": "7.5 ml formulated per kg seed, 10 days after sowing"}, "[12]": {"details": "7.5 ml formulated per kg seed, 14 days after sowing"}, "[13]": {"details": "11 ml formulated per kg seed, 2 days after sowing"}, "[14]": {"details": "11 ml formulated per kg seed, 3 days after sowing"}, "[15]": {"details": "11 ml formulated per kg seed, 7 days after sowing"}, "[16]": {"details": "11 ml formulated per kg seed, 10 days after sowing"}, "[17]": {"details": "11 ml formulated per kg seed, 14 days after sowing"}, "[18]": {"details": "15 ml formulated per kg seed, 2 days after sowing"}, "[19]": {"details": "15 ml formulated per kg seed, 3 days after sowing"}, "[20]": {"details": "15 ml formulated per kg seed, 7 days after sowing"}, "[21]": {"details": "15 ml formulated per kg seed, 10 days after sowing"}, "[22]": {"details": "15 ml formulated per kg seed, 14 days after sowing"}}, "data": [{"smiles": "CC1OC(C)OC(C)OC(C)O1", "note": "(stereo not shown) [metaldehyde]", "values": [{"measurement": "number of utilizable plants after 14 days", "setting": "[1]; 3.8 ml formulated per kg seed", "value": 32.3}, {"measurement": "percentage of damaged seeds after 14 days", "setting": "[1]; 3.8 ml formulated per kg seed", "value": 7, "unit": "%"}, {"measurement": "Mean number of damaged seeds per pot", "setting": "[1]; [3]", "value": 0}, {"measurement": "Mean number of dead slugs per pot", "setting": "[1]; [3]", "value": 0}, {"measurement": "Mean number fecal pellets per pot", "setting": "[1]; [4]", "value": 1}, {"measurement": "Mean number of damaged seeds per pot", "setting": "[1]; [4]", "value": 0.3}, {"measurement": "Mean number of dead slugs per pot", "setting": "[1]; [4]", "value": 0}, {"measurement": "Mean number of plants present per pot", "setting": "[1]; [4]", "value": 9.3}, {"measurement": "Mean number fecal pellets per pot", "setting": "[1]; [5]", "value": 4}, {"measurement": "Mean number of damaged seeds per pot", "setting": "[1]; [5]", "value": 2.5}, {"measurement": "Mean number of dead slugs per pot", "setting": "[1]; [5]", "value": 0}, {"measurement": "Mean number of plants present per pot", "setting": "[1]; [5]", "value": 34.8}, {"measurement": "Mean number fecal pellets per pot", "setting": "[1]; [6]", "value": 5}, {"measurement": "Mean number of damaged seeds per pot", "setting": "[1]; [6]", "value": 1.3}, {"measurement": "Mean number of dead slugs per pot", "setting": "[1]; [6]", "value": 0}, {"measurement": "Mean number of plants present per pot", "setting": "[1]; [6]", "value": 33.0}, {"measurement": "Mean number fecal pellets per pot", "setting": "[1]; [7]", "value": 31}, {"measurement": "Mean number of damaged seeds per pot", "setting": "[1]; [7]", "value": 2.8}, {"measurement": "Mean number of dead slugs per pot", "setting": "[1]; [7]", "value": 0.5}, {"measurement": "Mean number of plants present per pot", "setting": "[1]; [7]", "value": 34.0}, {"measurement": "number of utilizable plants after 14 days", "setting": "[1]; 7.5 ml formulated per kg seed", "value": 34.3}, {"measurement": "percentage of damaged seeds after 14 days", "setting": "[1]; 7.5 ml formulated per kg seed", "value": 6, "unit": "%"}, {"measurement": "Mean number of damaged seeds per pot", "setting": "[1]; [8]", "value": 0}, {"measurement": "Mean number of dead slugs per pot", "setting": "[1]; [8]", "value": 0}, {"measurement": "Mean number fecal pellets per pot", "setting": "[1]; [9]", "value": 2}, {"measurement": "Mean number of damaged seeds per pot", "setting": "[1]; [9]", "value": 0}, {"measurement": "Mean number of dead slugs per pot", "setting": "[1]; [9]", "value": 0}, {"measurement": "Mean number of plants present per pot", "setting": "[1]; [9]", "value": 3.5}, {"measurement": "Mean number fecal pellets per pot", "setting": "[1]; [10]", "value": 4}, {"measurement": "Mean number of damaged seeds per pot", "setting": "[1]; [10]", "value": 3.5}, {"measurement": "Mean number of dead slugs per pot", "setting": "[1]; [10]", "value": 0.8}, {"measurement": "Mean number of plants present per pot", "setting": "[1]; [10]", "value": 34.3}, {"measurement": "Mean number fecal pellets per pot", "setting": "[1]; [11]", "value": 4}, {"measurement": "Mean number of damaged seeds per pot", "setting": "[1]; [11]", "value": 2.5}, {"measurement": "Mean number of dead slugs per pot", "setting": "[1]; [11]", "value": 1.0}, {"measurement": "Mean number of plants present per pot", "setting": "[1]; [11]", "value": 35.3}, {"measurement": "Mean number fecal pellets per pot", "setting": "[1]; [12]", "value": 6}, {"measurement": "Mean number of damaged seeds per pot", "setting": "[1]; [12]", "value": 2.5}, {"measurement": "Mean number of dead slugs per pot", "setting": "[1]; [12]", "value": 1.5}, {"measurement": "Mean number of plants present per pot", "setting": "[1]; [12]", "value": 35.0}, {"measurement": "number of utilizable plants after 14 days", "setting": "[1]; 11 ml formulated per kg seed", "value": 36.3}, {"measurement": "percentage of damaged seeds after 14 days", "setting": "[1]; 11 ml formulated per kg seed", "value": 1, "unit": "%"}, {"measurement": "Mean number of damaged seeds per pot", "setting": "[1]; [13]", "value": 0}, {"measurement": "Mean number of dead slugs per pot", "setting": "[1]; [13]", "value": 0}, {"measurement": "Mean number fecal pellets per pot", "setting": "[1]; [14]", "value": 2}, {"measurement": "Mean number of damaged seeds per pot", "setting": "[1]; [14]", "value": 0}, {"measurement": "Mean number of dead slugs per pot", "setting": "[1]; [14]", "value": 0}, {"measurement": "Mean number of plants present per pot", "setting": "[1]; [14]", "value": 9.8}, {"measurement": "Mean number fecal pellets per pot", "setting": "[1]; [15]", "value": 2}, {"measurement": "Mean number of damaged seeds per pot", "setting": "[1]; [15]", "value": 1.0}, {"measurement": "Mean number of dead slugs per pot", "setting": "[1]; [15]", "value": 0.5}, {"measurement": "Mean number of plants present per pot", "setting": "[1]; [15]", "value": 34.0}, {"measurement": "Mean number fecal pellets per pot", "setting": "[1]; [16]", "value": 1}, {"measurement": "Mean number of damaged seeds per pot", "setting": "[1]; [16]", "value": 0.3}, {"measurement": "Mean number of dead slugs per pot", "setting": "[1]; [16]", "value": 0.5}, {"measurement": "Mean number of plants present per pot", "setting": "[1]; [16]", "value": 35.8}, {"measurement": "Mean number fecal pellets per pot", "setting": "[1]; [17]", "value": 3}, {"measurement": "Mean number of damaged seeds per pot", "setting": "[1]; [17]", "value": 0.3}, {"measurement": "Mean number of dead slugs per pot", "setting": "[1]; [17]", "value": 1.0}, {"measurement": "Mean number of plants present per pot", "setting": "[1]; [17]", "value": 36.5}, {"measurement": "number of utilizable plants after 14 days", "setting": "[1]; 15 ml formulated per kg seed", "value": 34.5}, {"measurement": "percentage of damaged seeds after 14 days", "setting": "[1]; 15 ml formulated per kg seed", "value": 0, "unit": "%"}, {"measurement": "Mean number of damaged seeds per pot", "setting": "[1]; [18]", "value": 0.3}, {"measurement": "Mean number of dead slugs per pot", "setting": "[1]; [18]", "value": 0}, {"measurement": "Mean number fecal pellets per pot", "setting": "[1]; [19]", "value": 1}, {"measurement": "Mean number of damaged seeds per pot", "setting": "[1]; [19]", "value": 0}, {"measurement": "Mean number of dead slugs per pot", "setting": "[1]; [19]", "value": 0.3}, {"measurement": "Mean number of plants present per pot", "setting": "[1]; [19]", "value": 6.3}, {"measurement": "Mean number fecal pellets per pot", "setting": "[1]; [20]", "value": 3}, {"measurement": "Mean number of damaged seeds per pot", "setting": "[1]; [20]", "value": 0.8}, {"measurement": "Mean number of dead slugs per pot", "setting": "[1]; [20]", "value": 0.8}, {"measurement": "Mean number of plants present per pot", "setting": "[1]; [20]", "value": 35.0}, {"measurement": "Mean number fecal pellets per pot", "setting": "[1]; [21]", "value": 4}, {"measurement": "Mean number of damaged seeds per pot", "setting": "[1]; [21]", "value": 0}, {"measurement": "Mean number of dead slugs per pot", "setting": "[1]; [21]", "value": 0.8}, {"measurement": "Mean number of plants present per pot", "setting": "[1]; [21]", "value": 35.0}, {"measurement": "Mean number fecal pellets per pot", "setting": "[1]; [22]", "value": 5}, {"measurement": "Mean number of damaged seeds per pot", "setting": "[1]; [22]", "value": 0}, {"measurement": "Mean number of dead slugs per pot", "setting": "[1]; [22]", "value": 1.0}, {"measurement": "Mean number of plants present per pot", "setting": "[1]; [22]", "value": 35.3}, {"measurement": "damaged seeds relative to the control", "setting": "[1]; Example 1, 3.8, 7.5, 11 or 15 ml per kg of seed, all dosages", "value": "significantly less damaged seeds"}, {"measurement": "plants present relative to untreated", "setting": "[1]; Example 1, all dosages, after 7 days", "value": "significantly more plants present"}, {"measurement": "fecal pellets relative to the untreated seed", "setting": "[1]; Example 1, at each dosage and at each observation", "value": "significantly less fecal pellets"}, {"measurement": "protection / slug controlling effect (conclusion)", "setting": "[1]; Example 1, winter wheat seed treatment, dosages tested", "value": "excellent protection against slugs"}, {"measurement": "Percentage germinated", "setting": "[2]; 3.8 ml formulated per kg seed", "value": 56, "unit": "%"}, {"measurement": "Percentage germinated", "setting": "[2]; 7.5 ml formulated per kg seed", "value": 31, "unit": "%"}, {"measurement": "Percentage germinated", "setting": "[2]; 11 ml formulated per kg seed", "value": 48, "unit": "%"}, {"measurement": "Percentage germinated", "setting": "[2]; 15 ml formulated per kg seed", "value": 8, "unit": "%"}]}]}
